Measurements published in paper PMC6615598, “Novel antibiotics effective against gram-positive and -negative multi-resistant bacteria with limited resistance” (PLoS Biology, 2019).
Values after ≈ are worked out from the molar mass of the structure shown. Values joined by “and” are separate entries in the source; they are usually repeats but may differ in a detail not shown here. Equal values may be shown once. Read-outs that look alike come from different tables or passages of the source.

Columns and labels:
[1] = system: E. coli K12; assay: microbe, parasite or virus in culture
Description: (§1) For 15 d in MHB, MICs were determined daily for each pseudopeptide and their antibiotic controls. This was done using cells from the well in which the compound concentration was one-half of the MIC (1/2MIC). For each compound, the 1/2MIC well from the previous day’s MIC assay plate was re-suspended and the bacteria grown to a density of about 10^8 cells ml−1. The suspension was diluted in MHB or CAMHB (10^6 cells/ml) and then used to determine the MIC of the same compound determined by micro broth dilution. All MIC measurements were performed in duplicate. Aliquots of the 5 × 10^4 cell/ml dilutions for each 1/2MIC well were periodically plated on MHB and incubated at 35°C for 18 h to verify cell density by colony counts and for visual inspection of colony phenotypes. To control compound stability, peptide solution MICs were determined during and at the end of the 15 d and were compared to cells unexposed to antibiotics. In vivo resistance was also assessed in treated mice (1.5 mg.kg^−1) for 4 d (sepsis) or 6 d (skin abscesses). […] The broth microdilution method was performed as per EUCAST recommendations on 5 independent colonies per mouse (3 mice per set, 15 colonies per drug tested). For severe sepsis and subcutaneous abscesses, in vivo resistance was determined by plating aliquots of crude kidney extracts or abscesses on plates containing 1-, 2-, 4-, or 8-fold the peptide MICs 7 or 3 d post infections, respectively.

[2] = system: P. aeruginosa 15643; assay: microbe, parasite or virus in culture
Description: as §1

[3] = system: E. coli 13090; assay: microbe, parasite or virus in culture
Description: as §1

[4] = system: E. coli MCR1; assay: microbe, parasite or virus in culture
Description: as §1

[5] = system: S. aureus N315 (MRSA); assay: microbe, parasite or virus in culture
Description: (§2) (10−4 M final concentrations). At selected time intervals, 100 μl of reaction mixture was collected, quenched by 200 μl 95% EtOH, and adjusted at pH 2 to prevent peptide adsorption to serum proteins. […] Supernatants were analyzed by RP-HPLC on an Xbridge C18 column with a linear gradient of water, 0.08% TFA, and acetonitrile with 1% TFA. HPLC peak areas were used to calculate the percentages of intact compound remaining at the various time points. MIC and MBC values were determined in triplicate in many ESKAPE clinical isolates, including a dozen MDR S. aureus, by the broth microdilution method. Peptidomimetics and antibiotics were assayed in a concentration range of 1 to 128 μM. The bacterial inoculum (5 × 10^5 colony-forming units [CFUs]/well) was prepared in MHB or CAMHB (150 μl). A Biotek Synergy 2 spectrophotometer was used to record the results after 18–20 h incubation at 35°C (±2°C). […] After every hour of culture for 4 h, serial dilutions were plated on BHI plates and incubated overnight at 37°C, and then the CFUs were counted and expressed as log CFU/ml. Phosphate-buffered saline (PBS)-exposed S. aureus MRSA was included as a control.

[6] = system: MSSA (Newman); assay: microbe, parasite or virus in culture; details: for MIC: Staphylococcus aureus
Description: as §1

[7] = system: MRSA (Mu3); assay: microbe, parasite or virus in culture
Description: as §1

[8] = system: P. aeruginosa LESB58; assay: Cutaneous abscess mouse model (CFU); format: in vivo, mice; details: cutaneous abscesses induced by P. aeruginosa in mice; repeated doses post-infection, 9 mg/kg; second data set; individual values
Description: For the cutaneous abscess model, the mice were randomly divided into 5 sets. The mice were anesthetized with isoflurane, their dorsal fur shaved, and their skin disinfected with 70% ethanol. An overnight culture of S. aureus MRSA or P. aeruginosa LESB58 was washed with 0.9% NaCl, and then a subcutaneous injection of 2 × 10^9 CFUs and an equal amount of sterile Cytodex microcarrier beads (20 mg.ml^−1, Sigma) for S. aureus MRSA, or 10^8 CFUs for P. aeruginosa were injected into the shaved area. […] Mice were monitored every day and then euthanized with CO2 on Day 6 or on Day 3. Abscesses were excised, measured, and homogenized in PBS using an Ultra-Turax. Serial dilutions of the samples were plated on BHI (MRSA) or 2YT medium (LESB58) plates and then incubated overnight at 37°C. Afterward, the CFUs were counted and expressed as log CFU/ml. Dermonecrosis areas were calculated according to the formula π × L × W. ATP levels were determined with an ATP assay kit (Promega) according to manufacturer instructions on sets of 5 colonies harboring the SCV phenotype, and sets of 5 colonies harboring a normal phenotype, after growth on BHI plates.

[9] = system: Escherichia coli K12; details: E. coli K12; for MIC: broth microdilution, 3 independent experiments
Description: as §2

[10] = system: S. aureus Newman; assay: microbe, parasite or virus in culture; details: S. aureus Newman; broth microdilution; 3 independent experiments
Description: as §2

[11] = system: S. aureus Mu3 (MRSA); assay: microbe, parasite or virus in culture; details: S. aureus Mu3 (MRSA); broth microdilution; 3 independent experiments
Description: as §2

[12] = Stability in human serum (half-life); format: in vitro ADME; details: 25% human serum, pre-incubated 15 min at 37°C, peptide 10^−4 M, RP-HPLC peak areas, mean of biological triplicates
Description: as §2
(§3) Supplementary file pbio.3000337.s013.docx: S7 Table Peptide half-lives in human and mouse sera. […] Peptide amounts and half-lives were determined by HPLC. Experiments were conducted on 25% human or mouse sera. Values are shown in minutes. The mean values correspond to biological triplicates. HPLC, high pressure liquid chromatography. (DOCX) Click here for additional data file.

[13] = system: A. baumanii 7985
Description: as §2

[14] = system: Escherichia coli 283
Description: as §2

[15] = system: Escherichia coli 146
Description: as §2

[16] = system: Escherichia coli 066
Description: as §2

[17] = system: Escherichia coli PV; details: E. coli PV
Description: as §2

[18] = system: K. pneumoniae 13825
Description: as §2

[19] = system: P. aeruginosa 15637
Description: as §2

[20] = system: P. aeruginosa 15643
Description: as §2

[21] = system: Escherichia coli 750
Description: as §2

[22] = system: Escherichia coli 758
Description: as §2

[23] = system: Escherichia coli 13090
Description: as §2

[24] = system: P. aeruginosa PA14; details: P. aeruginosa PA14
Description: as §2

[25] = system: Escherichia coli ML35P; details: E. coli ML35P
Description: as §2

[26] = system: Escherichia coli 293
Description: as §2

[27] = system: Escherichia coli 444
Description: as §2

[28] = system: A. baumanii 11896
Description: as §2

[29] = system: Escherichia coli MCR−1
Description: as §2

[30] = system: Escherichia coli 508
Description: as §2

[31] = system: K. pneumoniae 13829
Description: as §2

[32] = system: P. aeruginosa 15641
Description: as §2

[33] = system: Enterobacter cloacae ATCC13047; details: Enterobacter cloacae ATCC13047
Description: as §2

[34] = system: P. aeruginosa 15644
Description: as §2

[35] = system: P. aeruginosa 15638
Description: as §2

[36] = Stability in mouse serum (half-life); format: in vitro ADME; details: 25% mouse serum, pre-incubated 15 min at 37°C, peptide 10^−4 M, RP-HPLC peak areas, mean of biological triplicates
Description: as §2, §3

[37] = broth microdilution, 3 independent experiments

Work on `C[C@@H]1O[C@@H]1P(=O)(O)O` [Fosfomycin, fosfomycin, reference compound] yielded an MIC ([1]; E. coli K12, d0 of serial passages) of 27 µg/mL, an MIC ([1]; Escherichia coli, K12) of 200 µM and an MIC ([2]; P. aeruginosa 15643, d0 of serial passages) of 27 µg/mL. It also gave an MIC ([2]; Pseudomonas aeruginosa, 15643) of 200 µM, an MIC ([3]; E. coli 13090, d0 of serial passages) of 27 µg/mL and an MIC ([3]; Escherichia coli, 13090) of 200 µM. The MIC ([4]; E. coli MCR1, d0 of serial passages) was 27 µg/mL and the MIC ([4]; Escherichia coli, MCR1) was 200 µM.
For `COc1cccc(OC)c1C(=O)N[C@@H]1C(=O)N2[C@@H]1SC(C)(C)[C@@H]2C(=O)O` [Methicillin, methicillin], the MIC ([5]; Staphylococcus aureus, MRSA) was 32 µM.
With `CO[C@H]1/C=C/O[C@@]2(C)Oc3c(C)c(O)c4c(O)c(c(/C=N/N5CCN(C)CC5)c(O)c4c3C2=O)NC(=O)/C(C)=C\C=C\[C@H](C)[C@H](O)[C@@H](C)[C@@H](O)[C@@H](C)[C@H](OC(C)=O)[C@@H]1C` [Rifampicin, rifampicin] the “Increase of MIC after 2 weeks of serial passages” value ([6]; S. aureus) was “about 30,000 fold”, the MIC ([6]; MSSA (Newman), d0 of serial passages) was 0.03 µM (≈ 0.0247 µg/mL) and the MIC ([6]; MSSA|NEWMAN, d14 of serial passages at sub-MIC) was 1020 µM (≈ 843 µg/mL). The MIC ([7]; MRSA (Mu3), d14 of serial passages at sub-MIC) was 1,024 (843) μM and the MIC ([7]; Staphylococcus aureus, MRSA) was 1020 µM (≈ 843 µg/mL).
With Colistine the “CFU counts per abscess” value [8] was 3.8 log Cfu/ml and 4 log Cfu/ml and 4.8 log Cfu/ml and 4.6 log Cfu/ml.
In the case of nisin, the MIC [9] is reported as 4 (16) μM, the MIC [10] is reported as 8 (32) μM and the MIC [11] is reported as 8 (32) μM. The MIC ([5]; S. aureus N315 (MRSA), broth microdilution, 3 independent experiments) was 8 (32) μM.
For polymyxin B [reference compound], the “Half-life in human serum” value [12] was 23 ± 3.33 h, the MBC/MIC ([13]; A. baumanii 7985) was 1 and the MIC ([13]; A. baumanii 7985, clinical strain, Caen hemoculture, broth microdilution, 3 independent experiments) was 1 (1.3) μM. For the same compound, the MBC/MIC ([14]; E. coli 283) was 1, the MIC ([14]; E. coli 283, clinical strain, Rennes urinary catheter, broth microdilution, 3 independent experiments) was 0.5 (0.65) μM and the MBC/MIC ([15]; E. coli 146) was 1. For the same compound, the MIC ([15]; E. coli 146, clinical strain, Rennes urinary catheter, broth microdilution, 3 independent experiments) was 1 (1.3) μM, the MBC/MIC [9] was 1 and the MIC [9] was 0.5 (0.65) μM. For the same compound, the MBC/MIC ([16]; E. coli 066) was 1, the MIC ([16]; E. coli 066, clinical strain, Rennes urinary catheter, broth microdilution, 3 independent experiments) was 1 (1.3) μM and the MBC/MIC [17] was 1. The MIC ([17]; clinical strain, Rennes vascular prosthetics, broth microdilution, 3 independent experiments) was 0.5 (0.65) μM, the MBC/MIC ([18]; K. pneumoniae 13825) was 2 and the MIC ([18]; K. pneumoniae 13825, clinical strain, Caen hemoculture, broth microdilution, 3 independent experiments) was 2 (2.6) μM. The MBC/MIC ([19]; P. aeruginosa 15637) was 2, the MIC ([19]; P. aeruginosa 15637, clinical strain, Caen hemoculture, broth microdilution, 3 independent experiments) was 1 (1.3) μM and the MBC/MIC ([20]; P. aeruginosa 15643) was 2. The MIC ([20]; P. aeruginosa 15643, clinical strain, Caen hemoculture, broth microdilution, 3 independent experiments) was 0.5 (0.65) μM, the MBC/MIC ([21]; E. coli 750) was 1 and the MIC ([21]; E. coli 750, clinical strain, Rennes urinary catheter, broth microdilution, 3 independent experiments) was 1 (1.3) μM. For the same compound, the MBC/MIC ([22]; E. coli 758) was 1, the MIC ([22]; E. coli 758, clinical strain, Rennes urinary catheter, broth microdilution, 3 independent experiments) was 0.5 (0.65) μM and the MBC/MIC ([23]; E. coli 13090) was 1. For the same compound, the MIC ([23]; E. coli 13090, clinical strain, Caen hemoculture, broth microdilution, 3 independent experiments) was 0.5 (0.65) μM, the MBC/MIC [24] was 2 and the MIC [24, 37] was 0.5 (0.65) μM. The MBC/MIC [25] was 1, the MBC/MIC ([26]; E. coli 293) was 1 and the MIC ([26]; E. coli 293, clinical strain, Rennes urinary catheter, broth microdilution, 3 independent experiments) was 0.5 (0.65) μM. The MBC/MIC ([27]; E. coli 444) was 1, the MIC ([27]; E. coli 444, clinical strain, Rennes urinary catheter, broth microdilution, 3 independent experiments) was 0.5 (0.65) μM and the MBC/MIC ([28]; A. baumanii 11896) was 2. The MIC ([28]; A. baumanii 11896, clinical strain, Caen hemoculture, broth microdilution, 3 independent experiments) was 1 (1.3) μM, the MBC/MIC ([29]; E. coli MCR−1) was 1 and the MIC ([29]; E. coli MCR−1, clinical strain, Caen hemoculture, broth microdilution, 3 independent experiments) was 2 (2.6) μM. For the same compound, the MBC/MIC ([30]; E. coli 508) was 1, the MIC ([30]; E. coli 508, clinical strain, Rennes urinary catheter, broth microdilution, 3 independent experiments) was 0.5 (0.65) μM and the MBC/MIC ([31]; K. pneumoniae 13829) was 2. For the same compound, the MIC ([31]; K. pneumoniae 13829, clinical strain, Caen hemoculture, broth microdilution, 3 independent experiments) was 8 (10.4) μM, the MBC/MIC ([32]; P. aeruginosa 15641) was 2 and the MIC ([32]; P. aeruginosa 15641, clinical strain, Caen hemoculture, broth microdilution, 3 independent experiments) was 1 (1.3) μM. The MBC/MIC [33] was 2, the MIC [33, 37] was 8 (10.4) μM and the MBC/MIC ([34]; P. aeruginosa 15644) was 2. For the same compound, the MIC ([34]; P. aeruginosa 15644, clinical strain, Caen hemoculture, broth microdilution, 3 independent experiments) was 1 (1.3) μM, the MBC/MIC ([35]; P. aeruginosa 15638) was 2 and the MIC ([35]; P. aeruginosa 15638, clinical strain, Caen hemoculture, broth microdilution, 3 independent experiments) was 1 (1.3) μM. For the same compound, the “Half-life in mouse serum” value [36] was 10.7 ± 2.7 h.
